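Assay format: 96-well plates, 48-hour exposure. Definition used: TGI = concentration required for complete inhibition of growth.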
Assays:
Test in all cases: DTP human tumour cell line panel, 48 h
[1] = system: LOX IMVI melanoma
[2] = system: SK-MEL-28 melanoma
[3] = system: HT29 colon
[4] = system: UACC-257 melanoma
[5] = system: 786-0 renal
[6] = system: OVCAR-8 ovarian
[7] = system: KM12 colon
[8] = system: HCC-2998 colon
[9] = system: OVCAR-4 ovarian
[10] = system: SF-539 CNS
[11] = system: MDA-MB-435
[12] = system: SF-295 CNS
[13] = system: UO-31 renal
[14] = system: NCI/ADR-RES ovarian
[15] = system: MDA-MB-231 breast
[16] = system: UACC-62 melanoma
[17] = system: MALME-3M melanoma

Compound | TGI [1] [µM] | TGI [2] [µM] | TGI [3] [µM] | TGI [4] [µM] | TGI [5] [µM] | TGI [6] [µM] | TGI [7] [µM] | TGI [8] [µM] | TGI [9] [µM] | TGI [10] [µM] | TGI [11] [µM] | TGI [12] [µM] | TGI [13] [µM] | TGI [14] [µM] | TGI [15] [µM] | TGI [16] [µM] | TGI [17] [µM]
CC1=CC(=O)CC(C)(C)C1/C=C/C(C)=C/C=C/C(C)=C/C=C/C=C(C)/C=C/C=C(C)/C=C/C1C(C)=CC(=O)CC1(C)C (stereo not given) | 85.6 | > 100 | > 100 | > 100 | > 100 | 49 | > 100 | > 100 | > 100 | > 100 | 71.4 | > 100 | > 100 | > 100 | > 100 |  | 
O=c1c2cc(I)ccc2nc(SCc2nncs2)n1Cc1ccccc1 | > 100 | > 100 | > 100 | > 100 | > 100 | > 100 | > 100 | > 100 | > 100 | 84.1 | > 100 | > 100 | 2.6 | > 100 | 76.7 | > 100 | 
CC[C@H](C)[C@H]1NC(=O)[C@@H](NC(=O)[C@@H](CC(C)C)N(C)C(=O)C2CCCN2C(=O)[C@H](C)O)[C@@H](C)OC(=O)[C@H](Cc2ccc(OC)cc2)N(C)C(=O)[C@@H]2CCCN2C(=O)[C@H](CCCCNC(=O)OCc2ccccc2)NC(=O)[C@H](C)C(=O)[C@H](C(C)C)OC(=O)C[C@@H]1O (stereo not given in full) | > 25 | > 25 | 16.4 | > 25 | > 25 | > 25 | 19.4 | 9.79 | > 25 | > 25 | > 25 | > 25 | > 25 | > 25 |  | > 25 | 20.1
O=C(O)CCCC(=O)Nn1c(Cc2ccc(Cl)cc2)n[nH]c1=O | > 100 | > 100 | > 100 | > 100 | > 100 | > 100 | > 100 |  | > 100 |  | > 100 | > 100 | > 100 | > 100 | > 100 | > 100 | > 100
Nc1nc2c3nc(Nc4ccccc4)sc3nc(=S)n2c2sc(Nc3ccccc3)nc12 |  | > 100 | > 100 | > 100 | > 100 | > 100 |  | > 100 | > 100 | > 100 |  | > 100 | > 100 |  |  | > 100 | > 100
COc1ccc(C2N(c3ccc(F)cc3)C(=O)N3C(c4ccc(OC)cc4)N(c4ccc(F)cc4)C(=O)N23)cc1 (stereo not given) | > 100 | > 100 | > 100 | > 100 | > 100 | > 100 | > 100 |  | > 100 | > 100 | > 100 | > 100 | > 100 | > 100 | > 100 | > 100 | > 100
CC1(C)O[C@@H]([C@H](O)CO)[C@H](O)[C@@H](C2SCCCS2)O1 |  | > 100 | > 100 | > 100 | > 100 | > 100 | > 100 | > 100 | > 100 | > 100 | > 100 | > 100 | > 100 | > 100 | > 100 | > 100 | 
CCN(CC)C(=O)Cc1c(C(=O)N(CC)CC)c(=O)nc2sccn12 | > 100 | > 100 | > 100 | > 100 | > 100 | > 100 | > 100 | > 100 | > 100 | > 100 |  | > 100 | > 100 |  |  | > 100 | > 100
COc1ccccc1NC(=S)N/N=C/c1c(C)n(C)n(-c2ccccc2)c1=O | > 100 | > 100 | > 100 | > 100 | > 100 | > 100 | > 100 | > 100 | > 100 | > 100 | > 100 | > 100 | > 100 | 63.9 | > 100 | > 100 | 
CCOC(=O)c1c[nH]c2c(Sc3ccccc3)nccc2c1=O | > 100 | > 100 | > 100 | > 100 | > 100 | > 100 | > 100 |  | > 100 | > 100 | > 100 | > 100 | > 100 | > 100 | > 100 | > 100 | 
OC(c1ccc(F)cc1)C(F)(F)c1nc2ccccc2o1 (stereo not given) | > 100 | > 100 | > 100 | > 100 | > 100 | > 100 | > 100 | > 100 | > 100 | > 100 | > 100 | > 100 | > 100 | > 100 | > 100 | > 100 | 
CC(=O)O[C@H]1C(=O)[C@@]2(C)[C@H]([C@H](OC(=O)c3cccc([N+](=O)[O-])c3)[C@]3(O)C[C@H](OC(=O)[C@H](O)[C@@H](NC(=O)c4ccccc4)c4ccccc4)C(C)=C1C3(C)C)[C@]1(OC(C)=O)CO[C@@H]1C[C@@H]2O | > 25 | > 25 |  | > 25 | > 25 | > 25 | > 25 | > 25 | > 25 | 0.00254 | 0.0114 | 0.15 | > 25 | > 25 | > 25 | > 25 | 
CC(=O)C1=C(C)N2C(=NC3=C(CCc4ccccc43)C2c2ccc(F)cc2)S1 (stereo not given) | > 100 | > 100 | > 100 | > 100 | > 100 | > 100 | > 100 | > 100 | > 100 | > 100 | > 100 | > 100 | > 100 | > 100 | > 100 | > 100 | 
CCc1n[nH]c(=O)n1/N=C/c1ccccc1O | > 100 | > 100 |  | > 100 | > 100 | > 100 | > 100 | > 100 | > 100 | > 100 | > 100 | > 100 | > 100 | > 100 | > 100 | > 100 | 
O=c1[nH]c2ccccc2c(=O)n1/N=C/c1ccc(O)cc1 | > 100 | > 100 | > 100 | > 100 | > 100 | > 100 | > 100 |  |  | > 100 | > 100 | > 100 | > 100 | > 100 | > 100 | > 100 | 
CC(Nc1ncc2c(n1)-c1ccccc1OC2)C(=O)O (stereo not given) | > 100 | > 100 | > 100 | > 100 | > 100 | > 100 | > 100 |  | > 100 | > 100 | > 100 | > 100 | > 100 | > 100 | > 100 | > 100 | > 100
Cc1cc2c(c(C=Nc3ccccc3O)c1)OC1(C=C2)Oc2ccccc2C(=O)N1C (stereo not given) | 25.4 | 47.5 | 30.2 | 30.8 | 37.5 | 43.6 | 41.3 | 29.2 | 60 |  | 82 | 68.2 | 31.4 | 37.5 | 37.5 | 36.2 | 
COc1ccc(C2NC(=S)Nc3c2c(=O)oc2c3ccc3ccccc32)cc1 (stereo not given) | > 100 | > 100 | > 100 | > 100 | > 100 | > 100 | > 100 |  | > 100 |  | > 100 | > 100 | > 100 | > 100 | > 100 | > 100 | > 100
CC(C)(O)/C=C\P(=O)(O)O | > 100 | > 100 | > 100 | > 100 | > 100 | > 100 | > 100 | > 100 | > 100 | > 100 | > 100 | > 100 |  | > 100 |  | > 100 | > 100
CCOC(=O)C(/C(=N/S(=O)(=O)c1cc(C)c(Cl)cc1[S-])[n+]1ccc(N(C)C)cc1)=C(/O)c1ccc([N+](=O)[O-])cc1 |  | 83.5 | 55.4 | 25.3 | > 100 | > 100 | 82.7 |  | 88.6 | 53.9 | > 100 | 54.1 | > 100 | > 100 | > 100 | > 100 | 40.5
Oc1ccc(O)c(CNc2ccc(C(O)C(F)(F)F)cc2)c1 (stereo not given) | 32.2 | 77.3 | > 100 | 34.6 | 29 | > 100 |  |  | 30.3 | 21.1 | 47.4 | 32.5 | 21.9 | > 100 | 33.7 | 35.8 | 31
O=c1[nH]c2nnc(COc3ccc(Cl)cc3Cl)n2nc1Cc1ccccc1 | > 100 | > 100 | > 100 | > 100 | 43.8 | 53.9 | > 100 |  | > 100 | 39.8 | > 100 | > 100 | > 100 | > 100 | > 100 |  | > 100
COc1cc(NS(C)(=O)=O)ccc1Nc1cc[nH]c2ccc3nccc3c12 | 36 | 31.2 | 31.3 | 33.2 | 27.7 | 28.8 | 28.2 |  | 29.7 |  | 30.1 | 32.9 | > 100 | > 100 | 25 | 32.5 | 28.7
C[C@@H](c1ccccc1)n1c(N)c(-c2ccccn2)c2ccc([N+](=O)[O-])cc2c1=O | > 100 | > 100 | > 100 | > 100 | > 100 | > 100 | > 100 | > 100 | > 100 |  | > 100 |  | > 100 | > 100 | > 100 | > 100 | 
CCN(CC)c1cccc2c1/C(=N/O)CCCC2 | > 100 | > 100 | > 100 | > 100 | > 100 | > 100 | > 100 |  | > 100 |  |  | > 100 | > 100 |  |  | > 100 | > 100
COc1ccc(N=NC(=O)NC(Cc2ccccc2)C(=O)O)cc1 (stereo not given) | > 100 | > 100 | > 100 | > 100 | > 100 | > 100 | > 100 | > 100 | > 100 | > 100 | > 100 | > 100 | > 100 | > 100 |  | > 100 | > 100
c1ccc(-c2nnn3c2NC2=C(CCCC2)C3c2ccccc2)cc1 (stereo not given) | 27 |  | 28.4 | 52.2 | 36.4 | 5.44 | 31.2 |  |  | 35.8 | 20.8 | 49.7 | 34.1 | 52.4 | 64.6 | 33.7 | 
CCOC(=O)c1c(N)n(-c2ccccc2)c(=O)n(-c2ccccc2)c1=O | > 100 | > 100 | > 100 | > 100 | > 100 | > 100 | > 100 | > 100 | > 100 |  | > 100 | > 100 | > 100 |  | > 100 | > 100 | > 100
CCc1ccccc1N=NC(=O)NNc1ccccc1CC | 33.7 | 32.2 | 40.8 | 36.1 | 31.6 | 32.8 |  | 29.9 | 69.8 |  | 49 |  | 39.8 |  | 50.1 | 23 | 32.7
